In patent US20170304236A1, “ANTIALLERGIC AGENT” (TOHOKU UNIVERSITY, priority 2015, published 2017):

Legend:
NF-κB [1] = assay: NF-κB luciferase reporter assay in HaCaT cells; type: cell-based, human; conditions: TNF-α 100 ng/ml, 2 hours, 16D10 10 or 100 μM, TPCA-1 10 μM
Protocol: The transfection of Path Detect pNF-κB-Luc Plasmid (Stratagane) was performed with X-tremeGENE HP DNA Transfection Reagent in accordance with an accompanying protocol. Human keratinocyte HaCaT cells were seeded at 0.65×10^5 cells/ml into a 12-well plate (Falcon (trademark)), and cultured for 24 hours. […], first, to 50 μl of Opti-MEM at from 15° C. to 25° C., a 500 ng/μl reporter plasmid solution and a 100 ng/μl pGL4.74[hRluc/TK] Vector solution were added at 1 μl each. Next, 1. 5 μl of X-tremeGENE HP DNA Transfection Reagent was added, and the contents were lightly mixed by inversion and then left to standstill at room temperature for 15 minutes to form a transfection complex. Further, the culture supernatant was removed from the cells that had been cultured for 24 hours, and the cells were washed with PBS. After that, 950 μl of 10% FBS-containing MEMα was added to each well. […]
(§1) The measurement of luciferase activity was performed with Dual-Luciferase (trademark) Reporter Assay System in accordance with an accompanying protocol. […] Immediately after that, a Firefly luciferase luminescence integrated value for 10 seconds was calculated with AB-2200-R Luminescencer PSN (ATTO Corporation). After that, 50 μl of Stop&Glo reagent was added and the contents were lightly mixed, and then a Renilla luciferase luminescence integrated value for 10 seconds was measured.

IKK, IκB, STAT6 = assay: Western blot of NF-κB-activating signal and STAT6 phosphorylation in HaCaT cells; type: cell-based, human; conditions: 10 minutes; for TNF-α+IL-4 stimulation-induced increase in phosphorylation of IKK / TNF-α+IL-4 stimulation-induced reduction in inhibitory protein IκB of NF-κB: 16D10 100 μM
TSLP mRNA = TSLP mRNA expression in stimulated HaCaT cells (real-time PCR); type: cell-based, human; conditions: 16D10 10 and 100 μM, 4 hours
Description: […] […] Forward: [NT], Reverse: [NT] rRNA forward: [NT], Reverse: [NT].

TSLP [2] = assay: TSLP production by TNF-α stimulation in PAM212 cells (ELISA); type: cell-based, mouse; conditions: TNF-α 30 ng/ml, 16D10 1, 3 and 10 μM, 48 hours
Protocol: After the culture, TSLP in the culture solution was measured by EILSA.

TSLP [3] = assay: LPS-induced air pouch inflammation in Balb/c mouse; type: in vivo; conditions: 8 hours after administration into the air pouch
Protocol: (§2) 500 μl of air was subcutaneously injected into the back of a Balb/c mouse (6-week-old, male, SLC) to form an air pouch (day 1). Further, 500 μl each of air was injected into the air pouch on day 2, day 5, and day 7. 24 hours after that, 300 μl of a solution prepared by dissolving LPS at 10 ng/ml in 2% (w/v) CMC-Na physiological saline that had been subjected to high-pressure steam sterilization and further dissolving penicillin G potassium and streptomycin sulfate at 0.1 mg/ml each therein was injected into the air pouch to induce inflammation. […]
8 hours after the administration of the solution into the air pouch, the mouse was killed through blood removal by cutting the carotid artery under anesthesia. 300 μl of physiological saline was injected into the air pouch so as to be mixed with air pouch internal fluid, and then the air pouch internal fluid was collected and its weight was measured. An infiltrating leukocyte count was measured with a hemocytometer after the collected air pouch internal fluid had been diluted with physiological saline as appropriate. […] The supernatant was collected, and its TSLP concentration was measured with Mouse TSLP DuoSet (trademark) ELISA (R&D Systems) in accordance with an accompanying protocol. […]

TSLP [4] = assay: OVA air pouch model in ICR mouse; type: in vivo
Protocol: as §2, with “an ICR” for “a Balb/c”, “ovalbumin (OVA)” for “LPS”, “100 μg/0.3 ml” for “10 ng/ml”
8 hours after the administration of the solution into the air pouch, the mouse was killed through blood removal by cutting the carotid artery under anesthesia. 300 μl of physiological saline was injected into the air pouch so as to be mixed with air pouch internal fluid, and then the air pouch internal fluid was collected and its weight was measured. Its TSLP concentration was measured with Mouse TSLP DuoSet (trademark) ELISA (R&D Systems) in accordance with an accompanying protocol. 14 days after the administration of the solution into the air pouch, blood was collected, and the amount of OVA-specific IgE in serum was measured with an ELISA kit (Anti-ovalbumin IgE (mouse) EIA kit (Cayman 500840)).

TSLP [5] = assay: TSLP production in KCMH-1 cells (ELISA); type: cell-based, mouse; conditions: 24 hours, culture supernatant
Protocol: KCMH-1 cells (J. Immunol. Methods 402: 9-14 (2013)) were suspended in 10% FBS-containing MEM-α at 1.0×10^5 cells/mL.
The culture supernatant was collected, and a TSLP amount was measured with Mouse TSLP DuoSet (trademark) ELISA (R&D Systems).

various kinases = assay: Off-chip Mobility Shift Assay kinase panel (Carna Biosciences); type: biochemical; conditions: 16D10 at 10 μM
Protocol: Carna Biosciences, Inc. was entrusted to measure the effect of the test compound 16D10 at 10 μM on the activity of each kinase by Off-chip Mobility Shift Assay (MSA) described on the website of Carna Biosciences, Inc. (http://www.carnabio.com/output/pdf/ProfilingProfilingBook_ja. pdf). Specifically, the measurement was performed by the following method.
The test compound is dissolved in and diluted with DMSO to a 100-fold concentration. Then, the solution is diluted 25-fold with assay buffer to prepare a test compound solution. A control is similarly prepared.
(1) […] of a 4-fold compound solution, 5 mL of a 4-fold Substrate/ATP/Metal solution, and […] of a 2-fold kinase solution are prepared with assay buffer (20 mM HEPES, 0.01% Triton X-100, 2 mM DTT, pH 7.5), and are mixed and incubated in a polypropylene 384-well plate at room temperature for from 1 hour or 5 hours* (*the reaction time is set depending on the kinase); (2) […] of termination buffer (QuickScout Screening Assist MSA; Carna Biosciences) is added to each well; (3) the reaction mixture is applied to a LabChip™ system (PerkinElmer), and the peaks of a product and a substrate peptide are separated and quantified; and (4) a kinase reaction is evaluated on the basis of a product ratio (P/(P+S)) calculated from the peak heights of the product (P) and the substrate (S) peptide.

NF-κB [6] = assay: NF-κB luciferase reporter assay in KCMH-1 cells; type: cell-based, mouse; conditions: 16D10 10 μM
Protocol: The transfection of Path Detect pNF-κB-Luc Plasmid (Stratagane) was performed with X-tremeGENE HP DNA Transfection Reagent in accordance with an accompanying protocol. Mouse keratinocyte KCMH-1 cells were seeded at 1×10^5 cells/ml into a 12-well plate (Falcon (trademark)), and cultured for 24 hours. The following day, first, to 50 μl of Opti-MEM at from 15° C. to 25° C., a 500 ng/μl reporter plasmid solution and a 100 ng/μl pGL4.74 [hRluc/TK] Vector solution were added at 1 μl each. Next, 1.5 μl of X-tremeGENE HP DNA Transfection Reagent was added, and the contents were lightly mixed by inversion and then left to stand still at room temperature for 15 minutes to form a transfection complex. Further, the culture supernatant was removed from the cells that had been cultured for 24 hours, and the cells were washed with PBS. After that, 950 μl of 10% FBS-containing MEMα was added to each well. […]
as §1

SMILES | transcriptional activity of NF-κB (NF-κB [1]) | TNF-α+IL-4 stimulation-induced increase in phosphorylation of IKK (IKK, IκB, STAT6) | TNF-α+IL-4 stimulation-induced reduction in inhibitory protein IκB of NF-κB (IKK, IκB, STAT6) | expression of TSLP mRNA (TSLP mRNA; Poly(I:C) 50 μg/ml stimulation) | expression of TSLP mRNA (TSLP mRNA; TNF-α 100 ng/ml stimulation) | TSLP production by TNF-α (TSLP [2]) | TSLP concentration in air pouch internal fluid (TSLP [3]) | infiltrating leukocyte count (TSLP [3]) | OVA-specific IgE in serum (TSLP [4]; 14 days after administration into the air pouch) | TSLP production by OVA (TSLP [4]; air pouch internal fluid, 8 hours after administration) | TSLP production-suppressing ability (TSLP [5]) | activity of each kinase (various kinases) | increase in phosphorylation of STAT6 by stimulation (IKK, IκB, STAT6; TNF-α + IL-4, 16D10 100 μM) | transcriptional activity of NF-κB (NF-κB [6]; KCMH-1 cells, 24 hours) | TSLP production (NF-κB [6]; KCMH-1 mouse keratinocyte cell line)
NC(=O)Nc1sc(-c2ccc(F)cc2)cc1C(N)=O [TPCA-1, [5-(p-Fluorophennyl)-2-ureido]thiophene-3-carboxamide, reference compound] | suppressed the transcriptional activity of NF-κB | suppressed | suppressed | – | – | – | – | – | – | – | – | – | – | – | –
COc1ccc(OC)c(/C=C/C(=O)c2cc(OC)c(OC)cc2CCNC(C)=O)c1 [16D10, (E)-N-[2-[2-[3-(2,5-dimethoxyphenyl)-1-oxo-2-propen-1-yl]-4,5-dimethoxyphenyl]ethyl]acetamide] | did not suppress the activity | not suppressed | not suppressed | suppressed | suppressed | suppressed TSLP production by TNF-α in a concentration-dependent manner | significantly suppressed TSLP production | did not reduce infiltrating leucocytes | suppressed the production of OVA-specific IgE | significantly suppressed TSLP production by OVA | extremely high TSLP production-suppressing ability | did not suppress the activity of each kinase analyzed | did not suppress | without suppressing the transcriptional activity of NF-κB | suppressed TSLP production
